The record followed here is patent US10588919B2, “Materials and methods for the treatment of vascular disease” (THE UNIVERSITY COURT OF THE UNIVERSITY OF EDINBURGH, priority 2015, dated 2020).

What all share (assay type): cell-based, human
Data set [1] deals with LncRNA 2 (SMILR) expression. Kind of data set: MEKK1 and p38 inhibitor studies: LncRNA 2 (SMILR) expression by qRT-PCR in IL1α/PDGF-stimulated HSVSMC. The note with it: 24 h; for LncRNA 2 expression in the presence of IL1 and PDGF: HSVSMC, 60 minute pre-treatment, 10, 15 and 20 μM AZD6244, 5, 10 and 20 uM SB 203580; for induction of SMILR expression in response to PDGF and IL1α: VSMC, 60 min pre-treatment, AZD6244 5, 10 or 15 μM, SB203580. Here is the method: For gene expression analysis, cDNA for mRNA analysis was obtained from total RNA using the Multiscribe Reverse Transcriptase (Life technologies, UK). qRT-PCR was performed using Power SYBR green (life technologies, UK) with custom PCR primers (Eurofins, MWG, Ebersberg, Germany) the specificity of these primers was confirmed by performing a melting curve and running their PCR produce on a gel (Table 1-primer sequences). Ubiquitin C (UBC) was selected as housekeeping gene due to its stability across all groups studied. Fold-changes were calculated using the 2^-ΔΔCt method (Livak and Schmittgen 2001-http://www.ncbi.nlm.nih.gov/pubmed/11846609; analysis of relative gene expression data using real-time quantitative PCR and the 2(-Delta Delta C(T)) method. Methods 2001;25;402-8). For inhibitor studies, […] were plated at 1×10^5 cells in 6 well plates and quiesced for 48 h. […] Cells were then stimulated with either 0.2% media or a combination of IL1α and PDGF for 24 hours for RNA quantification or western blot analysis.
(Quantitative PCR measures a nucleic acid by following its amplification.)

The next data set concerns ZHX2. Kind of data set: ZHX2 expression by qRT-PCR in HSVSMC. The following applies: SMILR knockdown. Here is the method: (§1) For gene expression analysis, cDNA for mRNA analysis was obtained from total RNA using the Multiscribe Reverse Transcriptase (Life technologies, UK). qRT-PCR was performed using Power SYBR green (life technologies, UK) with custom PCR primers (Eurofins, MWG, Ebersberg, Germany) the specificity of these primers was confirmed by performing a melting curve and running their PCR produce on a gel (Table 1—primer sequences). Ubiquitin C (UBC) was selected as housekeeping gene due to its stability across all groups studied. Fold-changes were calculated using the 2^−ΔΔCt method (Livak and Schmittgen 2001—http://www.ncbi.nlm.nih.gov/pubmed/11846609; analysis of relative gene expression data using real-time quantitative PCR and the 2(-Delta Delta C(T)) method. Methods 2001;25;402-8). […] Following the 48 stimulation cells were RNA extracted as described earlier or fixed in 70% ethanol for EdU FACs analysis. EdU incorporation was visualized using Click-iT Alexa Fluor 594 according to the manufacturers protocol (Invitrogen).

In the next data set the test system is HSVSMC proliferation. Kind of data set: EdU incorporation (proliferation) of HSVSMC stimulated with IL1α/PDGF.
A further data set concerns SMILR. Kind of data set: RNA-FISH of SMILR transcripts in HSVSMC. An excerpt:
Custom RNA-FISH tiled probe sets were generated to all exons of […] FISH utilises “branch tree” technology. Briefly, a target specific probe set, containing 40 oligo probes, hybridises to the target mRNA as 20 oligo pairs. Each oligo pair forms a required platform for assembly of the signal amplification structure (tree) through a series of sequential hybridisation steps. Each fully assembled structure, covers a space of 40-50 nt of the target RNA, and has the capacity for 400-fold signal amplification. Therefore, a typical RNA probe set (containing 20 oligo pairs) has the capacity to generate 8,000-fold signal amplification. Due to this technology the company confirms single-molecule RNA sensitivity, thus each fluorescent signal corresponds to an individual lncRNA molecule. Control SNORD3 and UBC were used as housekeepers to determine spatial location of LncRNA2 (Panomics, Affymetrix). RNA-FISH was performed according to manufacturer's instructions (ViewRNATM cell FISH) with minor modifications for both cell and tissue experiments. For cellular analysis […] were grown on 16mm coverslips to 80% confluency, washed in PBS and fixed in 4% paraformaldehyde supplemented with 1% glacial acetic acid. Following detergent QS permeablisation and 1:6000 protease digest coverslips were incubated with a combination of UBC and LncRNA 2 probe sets or UBC. […]

The subject of another data set is SMILR (LncRNA 2). Kind of data set: dsiRNA-mediated knockdown of SMILR in HSVSMC, qRT-PCR. Here is the method: as §1
A further data set deals with HAS1. Kind of data set: HAS1 expression by qRT-PCR in HSVSMC. The following applies: SMILR knockdown. How it is done:
as §1

A further data set has as its system HAS2-AS1. Kind of data set: HAS2-AS1 expression by qRT-PCR in HSVSMC. The note with it: SMILR knockdown. Here is the method: as §1
For data set [2], the system named is interferon pathway (OAS1, IRF7). Kind of data set: qRT-PCR of interferon response genes OAS1 and IRF7 after dsiRNA. The note with it: dsiRNA off target effects. How it is done:
For gene expression analysis, cDNA for mRNA analysis was obtained from total RNA using the Multiscribe Reverse Transcriptase (Life technologies, UK). qRT-PCR was performed using Power SYBR green (life technologies, UK) with custom PCR primers (Eurofins, MWG, Ebersberg, Germany) the specificity of these primers was confirmed by performing a melting curve and running their PCR produce on a gel (Table 1—primer sequences). Ubiquitin C (UBC) was selected as housekeeping gene due to its stability across all groups studied. Fold-changes were calculated using the 2^−ΔΔCt method (Livak and Schmittgen 2001—http://www.ncbi.nlm.nih.gov/pubmed/11846609; analysis of relative gene expression data using real-time quantitative PCR and the 2(-Delta Delta C(T)) method. Methods 2001;25;402-8).

The next data set relates to HAS3. Kind of data set: HAS3 expression by qRT-PCR in HSVSMC. The note with it: SMILR knockdown. How it is done:
as §1

The next data set deals with HAS2. Kind of data set: HAS2 expression by qRT-PCR in HSVSMC. The note with it: SMILR knockdown. Here is the method:
as §1

For the compound `C[S+]([O-])c1ccc(-c2nc(-c3ccncc3)c(-c3ccc(F)cc3)[nH]2)cc1` (stereo not shown) [SB 203580], in data set [1], the “LncRNA 2 expression in the presence of IL1 and PDGF” value is given as “completely inhibited”; the “induction of SMILR expression in response to PDGF and IL1α” value is reported as “dose-dependent reduction”.
With “DsiRNA SMILR: Double stranded dicer substrate siRNA targeting LncRNA 2 (SMILR); probably sense SEQ ID NO: 1, antisense SEQ ID NO: 2 (sense CCAUAAUUUACAUGGAUGUU; antisense UUCCAAACAUCCAUGUAAAUUAUGGAA; listed as RNA, chemistry not fully specified)”, in the data set on ZHX2, the ZHX2 gene expression entry is reported as “no change”. Moreover, the “VSMC proliferation reduced (EdU incorporation)” value with HSVSMC proliferation (SMILR knock down with dsiRNA, IL1/PDGF 48 h, vs Si Control) is listed as 56±15%. Also, the “SMC proliferation following stimulation with IL1/PDGF (EdU incorporation)” value in the data set with HSVSMC proliferation (dsiRNA mediated knockdown of LncRNA 2) was “inhibited”. The “SMILR transcripts (RNA-FISH)” value with SMILR was “decrease”. Also, the “decrease in SMILR expression compared to dsiControl” value in the data set on SMILR (LncRNA 2) (25 nM dsiRNA, IL1α/PDGF 48 h) was determined as 75±24%. In addition, in the data set with SMILR (LncRNA 2) (IL1/PDGF, qRT-PCR), the “LncRNA 2 (SMILR) expression after dsiRNA transfection” value was “significant decrease”. Besides, in the data set with HAS1, the HAS1 expression entry is on record as “no effect”. Moreover, in the data set on HAS2-AS1, the “HAS2-AS1 lncRNA expression” value is “no change”. In addition, in [2], the “effect on the interferon pathway (response genes OAS1 and IRF7)” value is given as “No effect”. For the same compound, the HAS3 expression entry with HAS3 is listed as “no effect”. The “HAS2 mRNA levels” value is recorded as “significantly inhibits” with HAS2 and “significantly altered” in the data set with HAS2 (listed as SMILR siRNA).
On to `Cn1cnc2c(F)c(Nc3ccc(Br)cc3Cl)c(C(=O)NOCCO)cc21` [AZD6244], for which, in data set [1], the “LncRNA 2 expression in the presence of IL1 and PDGF” value was “completely inhibited”; the “induction of SMILR expression in response to PDGF and IL1α” value is on record as “prevented the induction”.
